Each structure is given as a SMILES string.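 Exposure lasted 48 hours, with cells grown in 96-well plates and compounds tested at five concentrations. Here, GI50 denotes the concentration required for 50% inhibition of growth. At the TGI there is no net growth.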

What all share (assay): growth of human tumour cells (NCI), 48 h
Assay [1] concerns CAKI-1 renal.
Assay [2] has as its system CCRF-CEM leukemia.
For assay [3], the system named is HCC-2998 colon.
The test system of assay [4] is HOP-62 NSCLC.
Assay [5] relates to NCI-H226 lung.
Assay [6] relates to NCI-H23 lung.
The test system of assay [7] is OVCAR-3 ovarian.
The test system of assay [8] is SN12C renal.
For assay [9], the system named is SR leukemia.
The test system of assay [10] is U251 CNS.

As to `COC(=O)c1cc2c(cc1Cl)SC(N(N(C)C)S(=O)(=O)c1ccc(Br)s1)=NS2(=O)=O`, the GI50 in assay [1] was 28.3 µM; in [2] it was 23.1 µM; in assay [3] it was 19.7 µM; in assay [4], 31.1 µM; in assay [5], 52.1 µM; in assay [6] it was 28.5 µM. Further, the GI50 was 21.6 µM in assay [7], 30.5 µM in assay [8], 13.3 µM in assay [9] and 30.2 µM in assay [10]. The TGI was 60.7 µM in assay [1]; 72.5 µM in assay [2]; 40.6 µM in assay [3]; over 100 µM in assay [4]; over 100 µM in assay [5]; 70.9 µM in assay [6]. Besides, the TGI in assay [7] was 56.9 µM; in [8], over 100 µM; in assay [9] it was 35.4 µM; in assay [10] it was 88.2 µM.

Take `C=C1C(=O)C23CC1C[C@H](OC(C)=O)[C@H]2C1(C)C(OC(C)=O)C[C@H](O)C(C)(C)[C@H]1C(=O)[C@@H]3OC(C)=O` (stereo partly drawn): the TGI in assay [1] worked out at 8.17 µM; in assay [2] it was 7.65 µM; in assay [3] it was 35.9 µM; in [4] it was 42.9 µM; in [5], 43.3 µM; in [6], 15.2 µM. The TGI was 12.7 µM in assay [7], 15.1 µM in assay [8], over 24.7 µM in assay [9] and 29.3 µM in [10].

In the case of `O=c1c2cc(Cl)ccc2oc2ccc(OCCCCCN3CCCCC3)cc12`, the GI50 in assay [1] was 3.24 µM; in [2] it was 3.92 µM; in assay [3], 8.55 µM; in assay [4], 7.03 µM; in assay [5] it was 8.74 µM; in assay [6], 5.37 µM. The GI50 is 5.47 µM in assay [7], 5.59 µM in assay [8], 1.47 µM in [9] and 6.12 µM in assay [10]. Besides, the TGI in assay [1] turned out to be 9.84 µM; in assay [2], 11.3 µM; in assay [3] it was 16.9 µM; in [4], 14.4 µM; in assay [5] it was 18.6 µM; in [6], 12 µM. The TGI in assay [7] was determined as 11.5 µM; in assay [8], 11.9 µM; in assay [9], 5.47 µM; in assay [10], 12.7 µM.

For the compound `O=C(Nc1cc(Cl)c(Cl)cc1Cl)C(=O)C1C=CCS1(=O)=O` (stereo not drawn), the TGI in assay [1], in assay [2], in [3], in assay [4], in assay [5] and in assay [6] was over 100 µM each time. The TGI in [7], in [8], in assay [9] and in assay [10] was over 100 µM throughout.

As to `CC12OC(c3ccccc3)=CC(c3ccc(Cl)cc3)=C1C(c1ccccc1)=CC2=O` (stereo not drawn), the GI50 in assay [1] was over 100 µM; in [2] it was 56.2 µM; in assay [3], 75.2 µM; in assay [4], over 100 µM; in assay [5], 68.1 µM; in [6], 41.5 µM. Moreover, the GI50 is 80 µM in assay [7], over 100 µM in assay [8], 19.1 µM in assay [9] and 33.1 µM in assay [10]. For the same compound, the TGI in assay [1], in assay [2], in [3], in assay [4], in assay [5] and in assay [6] was over 100 µM each time. The TGI in [7] was over 100 µM; in assay [8], over 100 µM; in assay [9], 67 µM; in assay [10], over 100 µM.

On to `CCCCCCCCC[C@@H]1CC(=O)OCC2OC(O[C@H](CCCCCCCCC)CC(=O)OCC3OC(O[C@H](CCCCCCCCC)CC(=O)OCC4OC(O1)C(O)C(O)C4O)C(O)C(O)C3O)C(O)C(O)C2O` (stereo partly drawn), for which the TGI in assay [1] was 14.9 µM; in [2], 19.4 µM; in assay [3], 24.7 µM; in [4] it was 26.1 µM; in [5] it was 24.6 µM; in assay [6], 30.6 µM. Further, the TGI was 32.1 µM in assay [7], 28 µM in [8], 20.6 µM in assay [9] and 21.4 µM in assay [10].

`CC[C@H](NC(=O)[C@H](C)NC)C(=O)N1C[C@@H](O)C[C@H]1Cc1c(-c2[nH]c3cc(F)ccc3c2C[C@@H]2C[C@H](O)CN2C(=O)[C@H](CC)NC(=O)[C@H](C)NC)[nH]c2cc(F)ccc12`: the GI50 in assay [1] was over 100 µM; in assay [2], 1.51 µM; in assay [3] it was 96.9 µM; in [4], 27.5 µM; in [5], over 100 µM; in [6] it was over 65.3 µM. For the same compound, the GI50 in assay [7] is over 100 µM; in assay [8], over 100 µM; in assay [9] it was 15.5 µM; in assay [10] it was 93.2 µM. Moreover, the TGI in assay [1], in assay [2], in assay [3], in assay [4], in assay [5] and in assay [6] was over 100 µM in each case. Besides, the TGI in assay [7], in [8], in assay [9] and in assay [10] was over 100 µM throughout.

As for `CCN(CC)c1cc2c3c(c1)CCCN3CCC2`, the TGI in assay [1], in assay [2], in [3], in [4], in assay [5] and in assay [6] was over 10 µM in each case. The TGI in [7], in assay [8], in assay [9] and in assay [10] was over 10 µM throughout.

As for `O=c1c(Oc2ccc(F)cc2F)cc2cnc(NC3CCOCC3)nc2n1C1CCS(=O)(=O)CC1`, the GI50 in assay [1], in assay [2], in assay [3], in assay [4], in assay [5] and in assay [6] was over 25 µM each time. Further, the GI50 in assay [7], in assay [8], in assay [9] and in assay [10] was over 25 µM each time. Further, the TGI in assay [1], in assay [2], in assay [3], in [4], in assay [5] and in assay [6] was over 25 µM throughout. The TGI in [7], in assay [8], in assay [9] and in [10] was over 25 µM each time.

Turning to `C=CCC(N[C@H](CO)c1ccccc1)c1ccc2ccccc2n1` (stereo partly drawn), the GI50 in assay [1], in assay [2], in assay [3], in assay [4], in assay [5] and in assay [6] was over 100 µM throughout. Further, the GI50 in [7], in assay [8], in assay [9] and in assay [10] was over 100 µM in each case. Moreover, the TGI in assay [1], in assay [2], in assay [3], in assay [4], in [5] and in [6] was over 100 µM each time. The TGI in assay [7], in [8], in assay [9] and in assay [10] was over 100 µM each time.

In the case of `Cc1nc2sc(C(=O)Nc3cccc(Cl)c3C)c(N)c2cc1C(=O)/C=C/c1ccccc1`, the GI50 in assay [1] is 0.417 µM; in assay [2], 0.176 µM; in [3], 0.827 µM; in [4], 0.339 µM; in assay [5] it was 0.483 µM; in assay [6], 0.755 µM. For the same compound, the GI50 is 0.199 µM in assay [7], 0.532 µM in assay [8], 0.188 µM in assay [9] and 0.252 µM in assay [10]. For the same compound, the TGI in [1] is 1.17 µM; in assay [2], over 50 µM; in [3], 1.57 µM; in assay [4], 1.73 µM; in assay [5], 1.68 µM; in [6], 2.44 µM. The TGI was determined as 0.737 µM in assay [7], 1.83 µM in assay [8] and 0.981 µM in [10].

Consider `CC/C(C)=C1\CCC(CN2CCOCC2)C1=O` (stereo not drawn), for which the TGI in assay [1] was 5.99 µM; in assay [2], 32 µM; in [3], 39.4 µM; in assay [4] it was 40.2 µM; in [5], over 100 µM; in assay [6], 30.6 µM. The results for the TGI in assay [7], in assay [8] and in assay [9] were 29.5 µM, 21.7 µM and 49.8 µM, respectively.

As to `CN[C@@H](C)C(=O)N[C@H](C(=O)N1CCC[C@H]1C(=O)N[C@H]1c2ccccc2C[C@H]1OCC#CC#CCO[C@@H]1Cc2ccccc2[C@@H]1NC(=O)[C@@H]1CCCN1C(=O)[C@@H](NC(=O)[C@H](C)NC)C1CCCCC1)C1CCCCC1`, the GI50 in [1] was over 68.2 µM; in assay [2], 1.1 µM; in assay [3] it was 1.77 µM; in assay [4], 0.422 µM; in assay [5], 19.6 µM; in assay [6], 0.796 µM. The GI50 was 2.63 µM in assay [7], 7.95 µM in assay [8], 0.456 µM in assay [9] and 1.94 µM in [10]. For the same compound, the TGI in [1] is over 100 µM; in assay [2], 4.27 µM; in [3], 4.45 µM; in assay [4] it was 16 µM; in assay [5] it was 41.5 µM; in assay [6] it was 6.98 µM. The TGI amounted to 11.9 µM in assay [7], 21.6 µM in assay [8], 3.16 µM in [9] and 4.79 µM in assay [10].

Consider `O=c1ccn(C2OC(CO)C(O)C2F)c(=O)[nH]1` (stereo not drawn), for which the GI50 in assay [1] is over 88.9 µM; in [4], over 1000 µM; in [5] it was over 1000 µM; in assay [6], over 1000 µM; in assay [7] it was over 1000 µM; in assay [8], over 1000 µM. In addition, the GI50 in [9] and in [10] was over 1000 µM each time. For the same compound, the TGI in [1] is over 100 µM; in assay [2], over 1000 µM; in assay [3], over 100 µM; in assay [4] it was over 1000 µM; in [5], over 1000 µM; in assay [6], over 1000 µM. The TGI in assay [7], in [8], in [9] and in [10] was over 1000 µM each time.

As to `CSc1ccc(C2=NN(C(=O)c3ccc(F)cc3)C(c3ccc(F)cc3)C2)cc1` (stereo not drawn), the GI50 in assay [1] is 16.6 µM; in assay [2] it was 2.24 µM; in assay [3], 12.3 µM; in assay [4], 18.4 µM; in assay [5] it was 13.4 µM; in [6] it was 18.2 µM. Besides, the GI50 was 10.3 µM in assay [7], 7.21 µM in assay [8], 1.71 µM in assay [9] and 4.54 µM in assay [10]. In addition, the TGI worked out at 37.5 µM in assay [1]; 6.52 µM in assay [2]; 25.6 µM in [3]; 33.7 µM in assay [4]; 34.3 µM in [5]; 36.2 µM in [6]. For the same compound, the TGI stood at 22.5 µM in assay [7], 19.2 µM in assay [8], 5.95 µM in [9] and 15.5 µM in [10].

With `CC1(C)C2CCC3=C(CCC4(C)C5C[C@](C)(C(=O)O)CC[C@]5(C)CC[C@]34C)[C@@]2(C)CC[C@@H]1O` (stereo partly drawn), the TGI in [1] was 37.7 µM; in [2], 36.3 µM; in [3], over 100 µM; in assay [4], 31.3 µM; in assay [5], 67.9 µM; in [6], 43.2 µM. The values for the TGI in [7], in assay [9] and in [10] were 29.8 µM, over 100 µM and 27.1 µM, respectively.

In the case of `COc1cc(/C=C(\C#N)C(=O)c2ccccc2)ccc1OCc1ccccc1`, the TGI in assay [1], in assay [2], in assay [3], in assay [4], in assay [5] and in assay [6] was over 100 µM throughout. In addition, the TGI in assay [7], in [8] and in [9] was over 100 µM throughout.

`COc1ccc(NC(=O)C(=O)C(C(=O)c2ccccc2)C2OC(=O)c3ccccc32)c([N+](=O)[O-])c1` (stereo not drawn): the TGI in assay [1], in assay [2], in assay [3], in assay [4], in assay [5] and in assay [6] was over 100 µM in each case. Further, the TGI in [8], in [9] and in assay [10] was over 100 µM each time.

Values taken from PubChem BioAssay (NCI).
